We go through one substance from patent US20240099992A1, “COMPOSITIONS AND METHODS FOR TREATING CANCER” (priority 2021, published 2024).

In experiment [1] the test system is MV-411 (B-myelomonocytic leukemia). Particulars: 50 μM, 100 μM and 500 μM, 24 hours. How it is done:
(§1) 50000 cells of each cell line were plated per well in a 24 well plate, treated with methylenediamine hydrochloride at different concentrations (0 as control, 50 μM, 100 μM and 500 μM) for 24 hours, then the living cells were counted. Jurkat: T cell leukemia, HL-60: acute leukemia cell; MV-411: B-myelomonocytic leukemia.

For experiment [2], the system named is HL-60 (acute leukemia cell). The conditions noted are these: 50 μM, 100 μM and 500 μM, 24 hours. The procedure:
as §1

Experiment [3] concerns Jurkat (T cell leukemia). Particulars: 50 μM, 100 μM and 500 μM, 24 hours. How it is done:
as §1

For experiment [4], the system named is cancer cell lines C8161, MUM2C, SKOV3, OVACA3, ScNAP, DU145, H1299, A549, MDA231, SNU499. The conditions noted are these: MTT, 24 hours. The procedure: The cancer cell lines were cultured in DMEM supplemented with 10% fetal bovine serum (FBS) and 100 U/mL penicillin-streptomycin in a humidified 37° C. incubator supplemented with 5% CO2. Cell proliferation was analyzed using MTT proliferation kit (Sigma). In brief, the cells were plated (5.0×10^3 cells per well) in 96-well plates and allowed to adhere overnight. The cells were then treated with methylenediamine dihydrochloride at various concentrations (0, 1 μM, 50 μM; 100 μM. 250 μM, 500 μM and 1 mM for 24 hours before the assay. After the incubation period, 10 μL of the MTT labeling reagent (final concentration 0.5 mg/mL) was added to each well. The microplate was incubated for 4 hours in a humidified atmosphere (37° C., 5% CO2). 100 μL of the Solubilization solution was added into each well. The plate was allowed to stand overnight in the incubator in a humidified atmosphere (37° C., 5% CO2). Complete solubilization of the purple formazan crystals was checked and the absorbance of the samples was measured using a microplate reader with wavelength of 570 nm.

Experiment [5] concerns H22, a mouse liver cancer cell line. Particulars: for Tumor suppression rate at day 9: versus normal saline group; for Tumor suppression rate at day 9 / suppression of tumor growth in the mouse liver cancer model (in words): dihydrochloride; for suppression of tumor growth in the mouse liver cancer model (in words): 120 and 240 mg/Kg daily through mouth, dose dependent. The procedure: H22, a mouse liver cancer cell line from ATCC, was cultured in 1640 medium with 10% […] at 37° C., 5% CO2. The cells were harvest 48 hours later and diluted to 1×10^6 cells/mL with the medium. Kunming mice, male, and body weight of 20 to 23 grams were used for the in vivo study. The animals were allowed free access to food and water throughout the study. All experimental protocols described here were approved by the Ethics Review Committee for Animal Experimentation. 0.2 mL of 1×10^6/ml cell suspension was inoculated into the abdominal cavity of the Kunming mice. The H22 ascites was transplanted 5 days later. The H22 cells in the ascites were harvested, diluted to a concentration of 1×10^7/mL with sterilized NS, then 0.2 mL was injected subcutaneously into the right armpit region of the mice. […] The animals were randomly divided into 3 groups with 7 mice in each and received the drug through mouth daily. Group 1: normal saline; Group 2: Methylenediamine Dihydrochloride low dose of 120 mg/Kg; Group 3: methylenediamine dihydrochloride high dose of 240 mg/Kg. Two perpendicular dimensions (length and width) of the subcutaneous transplantation tumors were measured in every mouse at day 3, day 6 and day 9 to calculate the tumor volume which was compared among groups (volume=½×length×width^2). […] The tumor suppression rate was calculated as: tumor volume in normal saline group minus tumor volume in methylenediamine dihydrochloride treated group, then divided by tumor volume of normal saline group.

Where two headings read alike, the source gives them in different places.

Consider methylenediamine dihydrochloride, for which the “suppression of living cells” value in experiment [1], in experiment [2] and in experiment [3] was “significant suppression” in each case. In addition, in experiment [4] (0 μM to 1 mM), the “suppression of cell proliferation (in words)” value is “suppressed with a dose dependent pattern”. Further, the “concentration at which suppression of most cancer cells' growth started” value in experiment [4] was determined as 50 µM. The “concentration above which proliferation was significantly suppressed” value in experiment [4] (dose dependent pattern) is recorded as “above 100 μM”. Further, the entries for the “Average tumor volume, Day 3” value in experiment [5] (120 mg/Kg daily through mouth) and in experiment [5] (240 mg/Kg daily through mouth) were 0.43 cm^3 and 0.41 cm^3, respectively. Further, the “Average tumor volume, Day 6” value in experiment [5] (120 mg/Kg daily through mouth) is 0.85 cm^3; in experiment [5] (240 mg/Kg daily through mouth), 0.78 cm^3. Further, the “Average tumor volume, Day 9” value in experiment [5] (120 mg/Kg daily through mouth) amounted to 1.21 cm^3; in experiment [5] (240 mg/Kg daily through mouth), 1.10 cm^3. Further, the “Tumor suppression rate at day 9” value in experiment [5] (120 mg/Kg daily through mouth) came to 30.5%; in experiment [5] (120 mg/Kg daily through mouth, listed as Methylenediamine dihydrochloride) it was 30.5%; in experiment [5] (240 mg/Kg daily through mouth) it was 36.8%; in experiment [5] (240 mg/Kg daily through mouth, listed as Methylenediamine dihydrochloride) it was 36.8%. Besides, the figures for the “suppression of tumor growth in the mouse liver cancer model (in words)” value in experiment [5] (listed as ethylenediamine dihydrochloride) and in experiment [5] (listed as methylenediamine dihydrochloride) were “effective in treating cancers” and “successfully suppressed tumor growth”, respectively.
